Laboratory results: patent US20070043010A1, “Quinazoline derivatives” (ASTRAZENECA UK LIMITED, priority 2003, published 2007)

System: KB cells
Test: EGFR driven KB cell proliferation assay, Test (b)
Format: cell-based
Conditions: Homo sapiens, 96 h, EGF 1 ng/ml, 4 days, MTT
Experimental: This assay measures the ability of a test compound to inhibit the proliferation of KB cells (human naso-pharangeal carcinoma obtained from the American Type Culture Collection (ATCC).
KB cells (human naso-pharangeal carcinoma obtained from the ATCC were cultured in Dulbecco's modified Eagle's medium (DMEM) containing 10% foetal calf serum, 2 mM glutamine and non-essential amino acids at 37° C. in a 7.5% CO2 air incubator. Cells were harvested from the stock flasks using Trypsin/ethylaminediaminetetraacetic acid (EDTA). Cell density was measured using a haemocytometer and viability was calculated using trypan blue solution before being seeded at a density of 1.25×10^3 cells per well of a 96 well plate in DMEM containing 2.5% charcoal stripped serum, 1 mM glutamine and non-essential amino acids at 37° C. in 7.5% CO2 and allowed to settle for 4 hours.
Following adhesion to the plate, the cells are treated with or without EGF (final concentration of 1 ng/ml) and with or without compound at a range of concentrations in dimethylsulfoxide (DMSO) (0.1% fial) before incubation for 4 days. Following the incubation period, cell numbers were determined by addition of 50 μl of 3-(4,5-Dimethylthiazol-2-yl)-2,5-diphenyltetrazolium bromide (MTT) (stock 5 mg/ml) for 2 hours. MTT solution was then tipped off, the plate gently tapped dry and the cells dissolved upon the addition of 100 μl of DMSO.
Absorbance of the solubilised cells was read at 540 nm using a Molecular Devices ThermoMax microplate reader. Inhibition of proliferation was expressed as an IC50 value. This was determined by calculation of the concentration of compound that was required to give 50% inhibition of proliferation. The range of proliferation was calculated from the positive (vehicle plus EGF) and negative (vehicle minus EGF) control values.

| SMILES | IC50 [nM] |
| --- | --- |
| COc1cc2ncnc(Nc3cccc(Cl)c3F)c2cc1O[C@@H]1C[C@@H](C(=O)NCCC#N)N(C)C1 [Compound 13-3] | 63 |
| COc1cc2ncnc(Nc3cccc(Cl)c3F)c2cc1O[C@H]1C[C@H](C(=O)NCCNC(C)=O)N(C)C1 [Compound 11-13, (4S)—N-[2-(acetylamino)ethyl]-4-({4-[(3-chloro-2-fluorophenyl)amino]-7-methoxyquinazolin-6-yl}oxy)-1-methyl-D-prolinamide] | 144 |
| COc1cc2ncnc(Nc3cccc(Cl)c3F)c2cc1O[C@H]1C[C@H](C(=O)N[C@H]2COC[C@@H]2O)N(C)C1 [Compound 11-14, (4S)-4-({4-[(3-chloro-2-fluorophenyl)amino]-7-methoxyquinazolin-6-yl}oxy)-N-[(3S,4R)-4-hydroxytetrahydrofuran-3-yl]-1-methyl-D-prolinamide] | 139 |
